Data reported in patent US20180320217A1, “METHODS FOR SAMPLING AND MEASURING ORAL LAVAGE PROTEINS” (The Procter & Gamble Company, priority 2017, published 2018).
Structures can show the parent of a compound that is named as a salt.

How the values were obtained:
[1] = target: T1, Malate dehydrogenase (Sus scrofa, UniProt P00346); test: Formation of formazan dyes: Malate dehydrogenase and 1-Methoxy PMS, absence of malate (TABLE 17); assay type: biochemical, pig heart; set-up: L-malate dehydrogenase (pig heart); purchased Sigma-Aldrich 10127248001 / 10127914001; conditions: Malate dehydrogenase and 1-Methoxy PMS, absence of malate, mean of three experiments
T1 sequence (P00346 25-338): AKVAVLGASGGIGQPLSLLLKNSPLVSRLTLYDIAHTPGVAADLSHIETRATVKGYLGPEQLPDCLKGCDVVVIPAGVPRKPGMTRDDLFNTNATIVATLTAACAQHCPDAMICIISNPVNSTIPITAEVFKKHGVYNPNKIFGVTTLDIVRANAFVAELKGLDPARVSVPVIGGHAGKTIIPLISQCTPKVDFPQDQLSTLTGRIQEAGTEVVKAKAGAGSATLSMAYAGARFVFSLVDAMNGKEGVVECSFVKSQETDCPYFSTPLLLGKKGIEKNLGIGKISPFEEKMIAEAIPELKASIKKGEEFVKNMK

[2] = system: diaphorase; test: Formation of formazan dyes: NADH and diaphorase, absence of malate (TABLE 7); assay type: biochemical, Clostridium kluyveri; conditions: NADH and diaphorase, absence of malate
[3] = Formation of formazan dyes: NADH, malate and 1-methoxy PMS (TABLE 16); assay type: biochemical; conditions: NADH, malate and 1-methoxy PMS, mean of three experiments
[4] = Formation of formazan dyes: NADH and 1-methoxy PMS, absence of malate (TABLE 15); assay type: biochemical; conditions: NADH and 1-methoxy PMS, absence of malate, mean of three experiments
[5] = system: oral lavage; test: Formation of formazan dyes: oral lavage and 1-Methoxy PMS, absence of malate (TABLE 19); assay type: biochemical, human; conditions: oral lavage and 1-Methoxy PMS, absence of malate, mean of three experiments
[6] = system: Malate dehydrogenase and diaphorase; test: Formation of formazan dyes: Malate dehydrogenase and diaphorase, absence of malate (TABLE 9); assay type: biochemical, pig heart
[7] = system: Malate dehydrogenase and diaphorase; test: Formation of formazan dyes: Malate dehydrogenase, diaphorase and malate (TABLE 10); assay type: biochemical, pig heart
[8] = system: oral lavage; test: Formation of formazan dyes: oral lavage, malate and diaphorase (TABLE 12); assay type: biochemical, human; conditions: oral lavage, malate and diaphorase
[9] = Formation of formazan dyes: control buffer, malate and 1-Methoxy PMS (TABLE 22); assay type: biochemical; conditions: control buffer, malate and 1-Methoxy PMS, mean of three experiments
[10] = target: T1, Malate dehydrogenase; test: Formation of formazan dyes: Malate dehydrogenase, malate and 1-Methoxy PMS (TABLE 18); assay type: biochemical, pig heart; set-up: L-malate dehydrogenase (pig heart); purchased Sigma-Aldrich 10127248001 / 10127914001; conditions: Malate dehydrogenase, malate and 1-Methoxy PMS, mean of three experiments
[11] = system: diaphorase; test: Formation of formazan dyes: only diaphorase and malate (TABLE 14); assay type: biochemical, Clostridium kluyveri; conditions: mean of three experiments
[12] = system: diaphorase; test: Formation of formazan dyes: NADH, diaphorase and malate (TABLE 8); assay type: biochemical, Clostridium kluyveri; conditions: NADH, diaphorase and malate

Cc1nc(-[n+]2nc(-c3cccc(OCC(=O)O)c3)nn2-c2ccc(S(=O)(=O)[O-])cc2)sc1C [MTS, 3-(4,5-dimethylthiazol-2-yl)-5-(3-carboxymethoxyphenyl)-2-(4-sulfophenyl)-2H-tetrazolium, inner salt]
Absorbance, formation of formazan dyes (Means) ([1]; 0 h): 0.34 | Absorbance, formation of formazan dyes (Means) ([1]; 1 h): 0.36 | Absorbance, formation of formazan dyes (Means) ([1]; 2 h): 0.33 | Absorbance, formation of formazan dyes (Means) ([1]; 3 h): 0.33 | Absorbance, formation of formazan dyes (Means) ([1]; 4 h): 0.41 | Absorbance, formation of formazan dyes (Means) ([1]; 6 h): 0.48 | Absorbance, formation of formazan dyes (Means) ([1]; 8 h): 0.48 | Absorbance, formation of formazan dyes (Means) ([1]; 10 h): 0.52 | Absorbance, formation of formazan dyes (Means) ([1]; 12 h): 0.51 | Formation of formazan dyes, absorbance, Means 0 h ([2]; 0 h): 3.21 | Formation of formazan dyes, absorbance, Means 1 h ([2]; 1 h): 3.24 | Formation of formazan dyes, absorbance, Means 2 h ([2]; 2 h): 3.22 | Formation of formazan dyes, absorbance, Means 3 h ([2]; 3 h): 3.20 | Formation of formazan dyes, absorbance, Means 4 h ([2]; 4 h): 3.27 | Formation of formazan dyes, absorbance, Means 6 h ([2]; 6 h): 3.29 | Formation of formazan dyes, absorbance, Means 8 h ([2]; 8 h): 3.28 | Formation of formazan dyes, absorbance, Means 10 h ([2]; 10 h): 3.28 | Formation of formazan dyes, absorbance, Means 12 h ([2]; 12 h): 3.28 | Absorbance, formation of formazan dyes (Means) ([3]; 0 h): 2.33 | Absorbance, formation of formazan dyes (Means) ([3]; 1 h): 2.41 | Absorbance, formation of formazan dyes (Means) ([3]; 2 h): 2.44 | Absorbance, formation of formazan dyes (Means) ([3]; 3 h): 2.47 | Absorbance, formation of formazan dyes (Means) ([3]; 4 h): 2.27 | Absorbance, formation of formazan dyes (Means) ([3]; 6 h): 2.38 | Absorbance, formation of formazan dyes (Means) ([3]; 8 h): 2.41 | Absorbance, formation of formazan dyes (Means) ([3]; 10 h): 2.45 | Absorbance, formation of formazan dyes (Means) ([3]; 12 h): 2.40 | Absorbance, formation of formazan dyes (Means) ([4]; 0 h): 2.31 | Absorbance, formation of formazan dyes (Means) ([4]; 1 h): 2.55 | Absorbance, formation of formazan dyes (Means) ([4]; 2 h): 2.60 | Absorbance, formation of formazan dyes (Means) ([4]; 3 h): 2.59 | Absorbance, formation of formazan dyes (Means) ([4]; 4 h): 2.63 | Absorbance, formation of formazan dyes (Means) ([4]; 6 h): 2.65 | Absorbance, formation of formazan dyes (Means) ([4]; 8 h): 2.69 | Absorbance, formation of formazan dyes (Means) ([4]; 10 h): 2.67 | Absorbance, formation of formazan dyes (Means) ([4]; 12 h): 2.65 | Absorbance, formation of formazan dyes (Means) ([5]; 0 h): 0.87 | Absorbance, formation of formazan dyes (Means) ([5]; 1 h): 1.50 | Absorbance, formation of formazan dyes (Means) ([5]; 2 h): 1.82 | Absorbance, formation of formazan dyes (Means) ([5]; 3 h): 2.08 | Absorbance, formation of formazan dyes (Means) ([5]; 4 h): 1.94 | Absorbance, formation of formazan dyes (Means) ([5]; 6 h): 2.32 | Absorbance, formation of formazan dyes (Means) ([5]; 8 h): 2.51 | Absorbance, formation of formazan dyes (Means) ([5]; 10 h): 2.66 | Absorbance, formation of formazan dyes (Means) ([5]; 12 h): 2.74 | Formation of formazan dyes, absorbance, Means 0 h ([6]; Malate dehydrogenase and diaphorase, absence of malate, 0 h): 0.17 | Formation of formazan dyes, absorbance, Means 1 h ([6]; Malate dehydrogenase and diaphorase, absence of malate, 1 h): 0.24 | Formation of formazan dyes, absorbance, Means 2 h ([6]; Malate dehydrogenase and diaphorase, absence of malate, 2 h): 0.22 | Formation of formazan dyes, absorbance, Means 3 h ([6]; Malate dehydrogenase and diaphorase, absence of malate, 3 h): 0.25 | Formation of formazan dyes, absorbance, Means 4 h ([6]; Malate dehydrogenase and diaphorase, absence of malate, 4 h): 0.21 | Formation of formazan dyes, absorbance, Means 6 h ([6]; Malate dehydrogenase and diaphorase, absence of malate, 6 h): 0.22 | Formation of formazan dyes, absorbance, Means 8 h ([6]; Malate dehydrogenase and diaphorase, absence of malate, 8 h): 0.23 | Formation of formazan dyes, absorbance, Means 10 h ([6]; Malate dehydrogenase and diaphorase, absence of malate, 10 h): 0.26 | Formation of formazan dyes, absorbance, Means 12 h ([6]; Malate dehydrogenase and diaphorase, absence of malate, 12 h): 0.25 | reduction of tetrazolium dye in the absence of substrate malate ([6]; malate dehydrogenase and diaphorase (TABLE 9)): remained largely in oxidized forms | Formation of formazan dyes, absorbance, Means 0 h ([7]; Malate dehydrogenase, diaphorase and malate, 0 h): 1.72 | Formation of formazan dyes, absorbance, Means 1 h ([7]; Malate dehydrogenase, diaphorase and malate, 1 h): 2.67 | Formation of formazan dyes, absorbance, Means 2 h ([7]; Malate dehydrogenase, diaphorase and malate, 2 h): 2.93 | Formation of formazan dyes, absorbance, Means 3 h ([7]; Malate dehydrogenase, diaphorase and malate, 3 h): 3.12 | Formation of formazan dyes, absorbance, Means 4 h ([7]; Malate dehydrogenase, diaphorase and malate, 4 h): 3.48 | Formation of formazan dyes, absorbance, Means 6 h ([7]; Malate dehydrogenase, diaphorase and malate, 6 h): 3.67 | Formation of formazan dyes, absorbance, Means 8 h ([7]; Malate dehydrogenase, diaphorase and malate, 8 h): 3.73 | Formation of formazan dyes, absorbance, Means 10 h ([7]; Malate dehydrogenase, diaphorase and malate, 10 h): 3.74 | Formation of formazan dyes, absorbance, Means 12 h ([7]; Malate dehydrogenase, diaphorase and malate, 12 h): 3.71 | conversion to reduced formazan dyes ([7]; malate dehydrogenase, diaphorase and malate (TABLE 10)): converted to reduced formazan dyes in a time-dependent manner | Formation of formazan dyes, absorbance, Means 0 h ([8]; 0 h): 0.68 | Formation of formazan dyes, absorbance, Means 1 h ([8]; 1 h): 0.93 | Formation of formazan dyes, absorbance, Means 2 h ([8]; 2 h): 1.07 | Formation of formazan dyes, absorbance, Means 3 h ([8]; 3 h): 1.14 | Formation of formazan dyes, absorbance, Means 4 h ([8]; 4 h): 1.34 | Formation of formazan dyes, absorbance, Means 6 h ([8]; 6 h): 1.56 | Formation of formazan dyes, absorbance, Means 8 h ([8]; 8 h): 1.84 | Formation of formazan dyes, absorbance, Means 10 h ([8]; 10 h): 2.10 | Formation of formazan dyes, absorbance, Means 12 h ([8]; 12 h): 2.27 | Means absorbance 0 h ([9]; 0 h): 0.20 | Means absorbance 1 h ([9]; 1 h): 0.20 | Means absorbance 2 h ([9]; 2 h): 0.21 | Means absorbance 3 h ([9]; 3 h): 0.23 | Means absorbance 4 h ([9]; 4 h): 0.25 | Means absorbance 6 h ([9]; 6 h): 0.33 | Means absorbance 8 h ([9]; 8 h): 0.36 | Means absorbance 10 h ([9]; 10 h): 0.47 | Means absorbance 12 h ([9]; 12 h): 0.50 | Absorbance, formation of formazan dyes (Means) ([10]; 0 h): 2.40 | Absorbance, formation of formazan dyes (Means) ([10]; 1 h): 3.33 | Absorbance, formation of formazan dyes (Means) ([10]; 2 h): 3.42 | Absorbance, formation of formazan dyes (Means) ([10]; 3 h): 3.38 | Absorbance, formation of formazan dyes (Means) ([10]; 4 h): 3.38 | Absorbance, formation of formazan dyes (Means) ([10]; 6 h): 3.27 | Absorbance, formation of formazan dyes (Means) ([10]; 8 h): 3.26 | Absorbance, formation of formazan dyes (Means) ([10]; 10 h): 3.18 | Absorbance, formation of formazan dyes (Means) ([10]; 12 h): 3.09 | Absorbance, formation of formazan dyes (Means) ([11]; 0 h): 0.16 | Absorbance, formation of formazan dyes (Means) ([11]; 1 h): 0.22 | Absorbance, formation of formazan dyes (Means) ([11]; 2 h): 0.27 | Absorbance, formation of formazan dyes (Means) ([11]; 3 h): 0.32 | Absorbance, formation of formazan dyes (Means) ([11]; 4 h): 0.46 | Absorbance, formation of formazan dyes (Means) ([11]; 6 h): 0.57 | Absorbance, formation of formazan dyes (Means) ([11]; 8 h): 0.68 | Absorbance, formation of formazan dyes (Means) ([11]; 10 h): 0.79 | Absorbance, formation of formazan dyes (Means) ([11]; 12 h): 0.93 | Formation of formazan dyes, absorbance, Means 0 h ([12]; 0 h): 3.01 | Formation of formazan dyes, absorbance, Means 1 h ([12]; 1 h): 3.01 | Formation of formazan dyes, absorbance, Means 2 h ([12]; 2 h): 3.00 | Formation of formazan dyes, absorbance, Means 3 h ([12]; 3 h): 3.00 | Formation of formazan dyes, absorbance, Means 4 h ([12]; 4 h): 3.07 | Formation of formazan dyes, absorbance, Means 6 h ([12]; 6 h): 3.09 | Formation of formazan dyes, absorbance, Means 8 h ([12]; 8 h): 3.17 | Formation of formazan dyes, absorbance, Means 10 h ([12]; 10 h): 3.08 | Formation of formazan dyes, absorbance, Means 12 h ([12]; 12 h): 3.20
